For test [1], the system named is RPL10A, RPL4, RPS6, RPS15A, MYOD1, DES. Description: Immunoblot of ribosomal proteins and myogenic factors. The test is classed as cell-based, human. To be noted: DUX4 pulse+IFNG relative to IFNG. The procedure:
Protein samples were harvested in RIPA buffer [150 mM NaCl, 1% NP-40, 0.5% Na-deocycholate, 1% SDS, 25 mM Tris-HCl pH7.4] supplemented with protease and phosphatase inhibitor tablets (Pierce), followed by sonication in Diagenode Bioruptor. Lysate was cleared by centrifugation at 16000×g and quantified using a Pierce BCA assay (Thermo Fisher Scientific). Samples were run on NuPAGE precast polyacrylamide gels (Invitrogen) and transferred to PVDF membrane. Membranes were blocked in PBS containing 0.1% Tween-20 and 5% non-fat dry milk before overnight incubation at 4° C. with primary antibodies (see resource table for a list of antibodies used in this study). Membranes were incubated with horseradish peroxidase-conjugated secondary antibodies for 1 hour at room temperature and SuperSignal chemiluminescent substrate (Thermo Scientific) was used for detection on film with a Mini-medical 90 processor. Membranes were stripped with Restore Western Blot Stripping Buffer (Pierce).
For orientation: In western blotting, separated proteins are transferred to a membrane and probed.

For test [2], the system named is polysome association of mRNAs. Description: Polysome profiling with RNA-seq. The test is classed as cell-based, human. The conditions noted are these: DUX4 pulse+IFNG versus IFNG. How it is done: Polysome profiling was performed using three 70% confluent 15 cm plates of MB135iDUX4 myoblasts per treatment condition (n=3). MB135iDUX4 myoblasts were pulsed with or without doxycycline for 4 hours, incubated for 48 hours, supplemented with 50 ng/mL IFNG for 16 hours, and harvested at a terminal time point of 68 hours. To harvest, culture medium was supplemented with 100 μg/mL cycloheximide (CHX; Sigma) and cells were incubated at 37° C. for 10 minutes. Media was aspirated and each 15 cm plate of adherent cells was rinsed with 25 mL ice-cold PBS supplemented with 100 μg/mL cycloheximide, lifted with 0.25% Trypsin-EDTA supplemented with CHX, and resuspended in growth media supplemented with CHX. Cells were pelleted at 300 RCF and washed twice with ice-cold PBS supplemented with CHX. Cell pellets were flash frozen in liquid nitrogen and stored at −80° C. Cells were lysed with Polysome Lysis Buffer (10 mM Tris pH 8, 140 mM NaCl, 7.5 mM MgCl2, 0.25% NP-40, 0.1% Triton X-100, 150 μg/mL CHX, 20 mM DTT, 640U/mL SUPERase-In RNase Inhibitor) and clarified before quantification with the Bio-Rad Protein Assay. 1.5 mg of clarified lysate was loaded onto a 10-50% sucrose gradient prepared in DEPC-treated water with 25 mM Tris pH 7.4, 25 mM NaCl, 5 mM MgCl2, 100 μg/mL heparin, and 2 mM DTT. Gradients were fractionated using a Biocomp Piston Gradient Fractionator. Samples were resuspended in Trizol and Drosophila S2 cells were added as an internal spike-in control. RNA was extracted using the Direct-zol RNA Miniprep Kit (Zymo Research). Relative mRNA abundance for each sample was normalized to Drosophila spike-in to account for differences in RNA extraction efficiency (Taruttis et al., 2017).
Total RNA was isolated using the NucleoSpin RNA kit (Machery-Nagel) or Direct-zol RNA Mini-Prep Kit (Zymo Research) according to manufacturer's instructions. RNA-seq libraries were prepared using the Illumina TruSeq RNA Sample Prep v2 Kit and sequenced using 50 bp paired-end sequencing on the Illumina NextSeq platform by the Fred Hutchinson Cancer Center Genomics Core.

In test [3] the test system is STAT1. Description: Anti-FLAG co-immunoprecipitation and western blot for STAT1. The test is classed as binding, human. To be noted: anti-FLAG IP from MB135 cells ± IFNG. The procedure:
Centrifugation at 2500 rcf at 4° C. for 5 min pelleted the nuclei, supernatant was discarded, and nuclei resuspended in 1 mL IP buffer pH 7.4 (25 mM Tris-HCl pH 7.5, 175 mM NaCl, 1 mM EDTA, 0.2% NP-40, 5% glycerol) and incubated for 1 hour at 4° C. with rotation then spun at 21000 rcf for 10 minutes at 4° C. to pellet insoluble debris. Protein concentration was determined using the Pierce BCA Protein Assay Kit (ThermoFisher, 23225). An equivalent amount of protein per sample was pre-cleared with Dynabeads Protein G (Invitrogen) bound to mouse IgG (Abcam #131368) for 1 hour at 4° C. with rotation. FLAG-tagged constructs were then immunoprecipitated with Dynabeads Protein G beads coupled to mouse anti-FLAG M2 mAb (Sigma F3165) for 3 hours at 4° C. with rotation. Beads were washed 3× with 1 mL IP buffer and eluted by adding 2× NuPage LDS Sample Buffer (Thermo Fisher, diluted from 4× with PBS) to the beads and heating for 10 minutes at 70° C.
Antibodies against STAT1 [EPR4407] (ab109320), pSTAT1 Y701 [M135] (ab29045), pSTAT1 S727 [EPR3146] (ab109461), YBX1 [EP2708Y] (ab76149), PABPC1 (ab21060), hnRNPM [EPR13509 (B)] (ab177957), PRKDC [Y393] (ab32566), and HSP90AB1 [EPR16621] (ab203085) were purchased from Abcam. Antibodies against FLAG tag [M2] (F1804) and [M2] (F3146) were purchased from Sigma Aldrich. Antibodies against DDX3X [D19B4] (8192S), hnRNPK [R332] (4675S), TRIM28 [C42G12] (4124S), PPP2R1A [81G5] (2041S), NCL [D4C70] (14574S), and MYC tag [71D10] (2278S), and IDO1 [D5J4E] (86630S) were purchased from Cell Signaling Technology. Antibodies against hnRNPU (14599-1-AP), CDK4 (11026-1-AP), and HAT1 (11432-1-AP) were purchased from ProteinTech. The antibody against HSPA8 [SR39-04] (PIMA532002) was purchased from ThermoFisher. The antibody against DUX4 (P2G4) was described previously (Geng et al., 2011, Immunodetection of human double homeobox 4. Hybridoma (Larchmt) 30, 125-130). The antibodies Goat anti-Rabbit IgG HRP (ThermoFisher, A27036) and Rat anti-Mouse IgG HRP for IP (Abcam, ab131368) were used as secondary antibodies against rabbit and mouse primary antibodies for western blotting.

Entries after “also recorded” stand apart in the source; their conditions may differ.

Consider “DUX4: human DUX4 protein SEQ ID NO:3 expressed from doxycycline inducible codon altered transgene SEQ ID NO:2”, for which the “protein levels of ribosomal proteins and myogenic factors” value in test [1] is “RPL10A, RPL4, RPS6, and RPS15A are suppressed by DUX4; also recorded: both were suppressed at the protein level”. In addition, the “mRNAs reduced in the high polysome fraction” value in test [2] (log 2FC<−1, p-adj<0.01) was determined as 7765 genes. Also, the “polysome-bound mRNAs significantly upregulated” value in test [2] (log 2FC>1, p-adj<0.01) came to 256. In test [2] (|log 2FC>1|, p-adj<0.01), the “genes with decreased polysome association (high/sub ratio)” value was found to be 5800 genes and the “genes with increased polysome association (high/sub ratio)” value was 323 genes. In addition, the “polysome association of specific mRNAs” value in test [2] (high-to-sub polysome ratio) was “TOP mRNAs remain associated with polysomes; also recorded: HLA-A, HLA-B, and HLA-C mRNAs showed reduced polysome association; also recorded: PSMB8, PSMB9, and PSMB10 mRNAs remained associated with polysomes”.
As to “longCTD: 3×FLAG tag and nls in frame with carboxyterminal 271 amino acids of DUX4 (aa154-424), SEQ ID NOS: 8-9”, the “co-immunoprecipitation with STAT1 / phosphorylated STAT1” value is “phosphorylation at Y701 is necessary for enhanced interaction; also recorded: preferentially interacts with pSTAT1-Y701” in test [3] (listed as DUX4-CTD), “showed stronger interaction with phosphorylated STAT1” in test [3] (listed as DUX4 CTD) and “both show binding to STAT1; also recorded: STAT1 is associated” in test [3] (listed as DUX4 longCTD).

The values above are taken from patent publication US20250339531A1, “DUX4 POLYPEPTIDES AND NUCLEIC ACIDS FOR TREATING INFLAMMATORY AND AUTOIMMUNE CONDITIONS” (Fred Hutchinson Cancer Center, priority 2021, published 2025).
